# According to EPA's ToxValDB 9.5:
# Key:
# Daphnia magna = conditions: chronic/long-term; duration: 21 days; reproduction
# Anas platyrhynchos = conditions: oral
# Apis mellifera = conditions: acute, mortality
# Neomysis kadiakensis = conditions: acute; duration: 96 hours; mortality
# Canidae = conditions: oral, clinical signs
# Rattus norvegicus = conditions: for LD50: acute
# Coturnix japonica = conditions: acute; oral; mortality
# Macaca mulatta = conditions: chronic; duration: 1 years; oral; gavage; M/F; clinical signs
# Homo sapiens = conditions: clinical; oral; M; clinical signs
# Ictalurus punctatus = conditions: not reported; mortality
# Bovidae = conditions: subchronic; duration: 30 days; oral; gavage; histopathology: neoplastic
# Oryctolagus sp. = conditions: subchronic; oral; diet; F; clinical chemistry
# Anatidae = conditions: subchronic; duration: 7 weeks; body weight
# Meleagris sp. = conditions: subchronic; duration: 5 weeks; clinical signs
# Tagia sp. = conditions: acute; duration: 14 days; mortality
# Typhlodromus pyri = conditions: not reported; mortality
# Aphidius rhopalosiphi = assay: LR50; higher = less toxic; conditions: not reported; mortality
compound,measurement,setting,value
O=[N+]([O-])/N=C1\NCCN1Cc1ccc(Cl)nc1 [Imidacloprid],NOEC,Daphnia magna,1.8 mg/L
same,LD50,"Anas platyrhynchos; acute, unspecified",66 mg/kg-day
same,NOAEL,Colinus virginianus; reproduction developmental,9.3 mg/kg-day
same,NOEL,"Colinus virginianus; short-term, oral, diet",29.4 mg/kg-day
same,LD50,Apis mellifera; dermal,0.081 µg/piece
same,NOEC,Apis mellifera; dermal,< 2.5 µg/piece
same,LD50,"Apis mellifera; duration: 48 hours, dermal",0.081 µg/piece
same,LD50,"Apis mellifera; duration: 48 hours, oral, unspecified",0.0037 µg/piece
same,LD50,"Apis mellifera; duration: 120 hours, dermal",0.0251 µg/piece
same,LD50,"Apis mellifera; oral, unspecified",0.0037 µg/piece
same,LC50,Neomysis kadiakensis,0.0341 mg/L
same,NOAEL,"Canidae; subchronic, duration: 90 days, Dog Other",7.8 mg/kg-day
same,LD50,Rattus norvegicus,256 mg/kg-day
same,NOAEL,Rattus norvegicus; chronic,17 mg/kg-day
same,NOAEL,"Rattus norvegicus; chronic, duration: 2 years, M, histopathology: nonneoplastic",5.7 mg/kg-day
same,NOAEL,"Rattus norvegicus; subchronic, duration: 90 days, oral, histopathology: nonneoplastic",9.3 mg/kg-day
same,LC50,"Oncorhynchus mykiss; acute, duration: 96 hours, mortality",> 83 mg/L
same,NOEC,"Oncorhynchus mykiss; chronic/long-term, duration: 91 days, time to hatch",9.02 mg/L
CNC(=O)Oc1cc(C)c(SC)c(C)c1 [Methiocarb],LC50,"Anas platyrhynchos; short-term, feed, mortality",1070 mg/kg
same,NOEC,"Colinus virginianus; reproduction developmental, reproduction",4.51 mg/kg-day
same,LD50,Coturnix japonica,5 mg/kg
CC(CCc1ccc(O)cc1)NCC(O)c1ccc(O)cc1.Cl (stereo unspecified) [Ractopamine hydrochloride],NOAEL,"Canidae; acute, M/F, Beagle",0.002 mg/kg-day
same,NOAEL,Macaca mulatta,0.125 mg/kg-day
same,NOEL,Homo sapiens,0.067 mg/kg-day
CC(=O)OC[C@]12C[C@H](OC(=O)CC(C)C)C(C)=C[C@H]1O[C@H]1[C@H](O)[C@H](OC(C)=O)[C@@]2(C)[C@]12CO2 [T-2 toxin],NOAEL,Ictalurus punctatus,13 µg/kg-day
same,LOAEL,"Gallus gallus; short-term, duration: 24 days, oral, diet, F, reproduction",0.12 mg/kg-day
same,LOAEL,"Gallus gallus; subchronic, duration: 5 weeks, clinical signs",0.04 mg/kg-day
same,LOAEL,Bovidae,0.3 mg/kg-day
same,NOAEL,Oryctolagus sp.,0.1 mg/kg-day
same,LOAEL,Anatidae,40 µg/kg-day
same,LOAEL,Meleagris sp.,48 µg/kg-day
COP(=O)(OC)C(O)C(Cl)(Cl)Cl (stereo unspecified) [Trichlorfon],LC50,Tagia sp.,140 mg/kg
same,LD50,"Rattus norvegicus; oral, F, mortality",212 mg/kg-day
same,NOAEL,"Rattus norvegicus; chronic, oral, M",13.2 mg/kg-day
same,LEL,Typhlodromus pyri,1200 g/ha
same,LR50,Aphidius rhopalosiphi,0.519 g/ha
